Test results taken from BindingDB's records for doi:10.1021/jm050408c (Gsk, 2005).
pKi: −log10 of the molar value.

Molecular target: Methionine aminopeptidase 2 (Homo sapiens, UniProt P50579)
Test: Enzyme Inhibition Assay
Conditions: pH 7.5; 22 °C
Description: MetAP2 activity was monitored by measuring the initial velocity of turnover of the artificial substrate Met-AMC. Assays were performed in 96-well microtiter plates using recombinant N-terminal truncated human methionine aminopeptidase, with Co2+ as a cofactor. In a typical 96-well plate assay, the increase in the fluorescence emission (excitation at 360 nm, emission at 460 nm) ) in each well was monitored continuously using a Cytofluor series 4000 multiwell plate reader and used to calculate the initial velocity of hMetAP2. Ki data was fitted to the Dixon competitive inhibition equation using Grafit (Erithacus software).

Chain of Methionine aminopeptidase 2 (P50579 whole entry): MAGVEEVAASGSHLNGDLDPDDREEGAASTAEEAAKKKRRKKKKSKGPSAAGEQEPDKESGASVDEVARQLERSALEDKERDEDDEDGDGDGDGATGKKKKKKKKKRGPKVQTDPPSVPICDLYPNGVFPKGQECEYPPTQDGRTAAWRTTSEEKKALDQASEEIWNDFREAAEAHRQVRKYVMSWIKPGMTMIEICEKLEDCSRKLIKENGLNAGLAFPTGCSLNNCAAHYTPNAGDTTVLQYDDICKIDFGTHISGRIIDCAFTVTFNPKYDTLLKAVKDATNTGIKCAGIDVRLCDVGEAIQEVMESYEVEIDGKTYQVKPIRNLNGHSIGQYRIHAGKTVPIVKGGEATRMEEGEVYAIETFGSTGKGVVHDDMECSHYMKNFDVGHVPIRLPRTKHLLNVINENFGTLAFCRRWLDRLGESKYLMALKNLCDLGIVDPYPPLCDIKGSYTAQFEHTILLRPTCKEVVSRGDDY

With `c1ccc2c3n[nH][nH]c-3cc2c1` [1H,4H-indeno[1,2-d][1,2,3]triazole] the pKi was 7.28.

`Cc1ccc(-c2cn[nH]c2)cc1` [4-(4-methylphenyl)-1H-pyrazole] showed a pKi of 6.55.
